# Measured values as given in PubChem BioAssay AID720607 (Broad Institute, 2013).
# Results filed as inconclusive are left out.
# Tested on: CCRF-CEM viability, CellTiter-Glo ATP luminescence, 8-48 h
# Test: cytotoxicity in CCRF-CEM lymphoblastic leukemia cells – cell-based, CellTiter-Glo ATP luminescence, 8/24/48 h, dry powder, HRAS target identification, dose response (AID 720607)
SMILES,AC50 (measured here: 8 h treatment) [µM],AC50 (measured here: 24 h treatment) [µM],AC50 (measured here: 48 h treatment) [µM]
COC(=O)c1ccc([C@@H]2c3[nH]c4ccccc4c3C[C@@H](C(=O)OC)N2C(=O)CCl)cc1,0.272,0.0199,0.0234
Cc1onc(C(=O)N2CCN(C(c3ccc(Cl)cc3)c3ccc(Cl)cc3)CC2)c1[N+](=O)[O-],0.553,0.0689,0.0788
CC(C)(C)OC(=O)NCCOCCOCCOc1ccc(N(C(=O)CCl)C(C(=O)NCCc2ccccc2)c2cccs2)cc1Cl (stereo not given),0.454,0.0344,0.0415
COc1ccc(N(C(=O)CCl)C(C(=O)NCCc2ccccc2)c2cccs2)cc1Cl (stereo not given),0.321,0.039,0.0387
C#CCCCC(=O)NCCOCCOCCOc1ccc(N(C(=O)CCl)C(C(=O)NCCc2ccccc2)c2cccs2)cc1Cl (stereo not given),2.98,0.588,0.565
